#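 Assay format: 96-well plates, 48-hour exposure. Here, GI50 denotes the concentration required for 50% inhibition of growth. TGI denotes the concentration required for complete inhibition of growth.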
# Key:
# Test in all cases: NCI tumour cell line growth inhibition, 48 h
# 786-0 renal = system: 786-0 renal
# A498 renal = system: A498 renal
# A549 NSCLC = system: A549 NSCLC
# ACHN renal = system: ACHN renal
# BT-549 breast = system: BT-549 breast
# CAKI-1 renal = system: CAKI-1 renal
# CCRF-CEM leukemia = system: CCRF-CEM leukemia
# COLO 205 colon = system: COLO 205 colon
# DU-145 prostate = system: DU-145 prostate
# EKVX NSCLC = system: EKVX NSCLC
# HCC-2998 colon = system: HCC-2998 colon
# HCT-116 colon = system: HCT-116 colon
# HCT-15 colon = system: HCT-15 colon
# HL-60(TB) leukemia = system: HL-60(TB) leukemia
# HOP-62 NSCLC = system: HOP-62 NSCLC
# HOP-92 NSCLC = system: HOP-92 NSCLC
# HS 578T breast = system: HS 578T breast
# HT29 colon = system: HT29 colon
# IGROV1 ovarian = system: IGROV1 ovarian
# K-562 leukemia = system: K-562 leukemia
# KM12 colon = system: KM12 colon
# LOX IMVI melanoma = system: LOX IMVI melanoma
# M14 melanoma = system: M14 melanoma
# MALME-3M melanoma = system: MALME-3M melanoma
# MCF7 breast = system: MCF7 breast
# MDA-MB-231 breast = system: MDA-MB-231 breast
# MDA-MB-435 = system: MDA-MB-435
# MOLT-4 leukemia = system: MOLT-4 leukemia
# NCI-H226 lung = system: NCI-H226 lung
# NCI-H23 lung = system: NCI-H23 lung
# NCI-H460 lung = system: NCI-H460 lung
# NCI-H522 lung = system: NCI-H522 lung
# NCI/ADR-RES ovarian = system: NCI/ADR-RES ovarian
# OVCAR-3 ovarian = system: OVCAR-3 ovarian
# OVCAR-4 ovarian = system: OVCAR-4 ovarian
# OVCAR-5 ovarian = system: OVCAR-5 ovarian
# OVCAR-8 ovarian = system: OVCAR-8 ovarian
# PC-3 prostate = system: PC-3 prostate
# RPMI-8226 leukemia = system: RPMI-8226 leukemia
# RXF 393 renal = system: RXF 393 renal
# SF-268 CNS = system: SF-268 CNS
# SF-295 CNS = system: SF-295 CNS
# SF-539 CNS = system: SF-539 CNS
# SK-MEL-2 melanoma = system: SK-MEL-2 melanoma
# SK-MEL-28 melanoma = system: SK-MEL-28 melanoma
# SK-MEL-5 melanoma = system: SK-MEL-5 melanoma
# SK-OV-3 ovarian = system: SK-OV-3 ovarian
# SN12C renal = system: SN12C renal
# SNB-19 CNS = system: SNB-19 CNS
# SNB-75 CNS = system: SNB-75 CNS
# SW-620 colon = system: SW-620 colon
# T-47D breast = system: T-47D breast
# TK-10 renal = system: TK-10 renal
# U251 CNS = system: U251 CNS
# UACC-257 melanoma = system: UACC-257 melanoma
# UACC-62 melanoma = system: UACC-62 melanoma
# UO-31 renal = system: UO-31 renal
compound,measurement,setting,value
CCCCC(CCCCCC(CCCC)C1NC(C)Cc2cc(OC)c(OC)cc21)C1NC(C)Cc2cc(OC)c(OC)cc21 (centres undefined),GI50,786-0 renal,1690 nM
same,TGI,786-0 renal,3150 nM
same,GI50,A498 renal,1410 nM
same,TGI,A498 renal,2730 nM
same,GI50,A549 NSCLC,1570 nM
same,TGI,A549 NSCLC,3020 nM
same,GI50,ACHN renal,1760 nM
same,TGI,ACHN renal,3210 nM
same,GI50,BT-549 breast,1790 nM
same,TGI,BT-549 breast,3260 nM
same,GI50,CAKI-1 renal,1720 nM
same,TGI,CAKI-1 renal,3710 nM
same,GI50,CCRF-CEM leukemia,2150 nM
same,TGI,CCRF-CEM leukemia,4660 nM
same,GI50,COLO 205 colon,294 nM
same,TGI,COLO 205 colon,842 nM
same,GI50,DU-145 prostate,1800 nM
same,TGI,DU-145 prostate,3230 nM
same,GI50,EKVX NSCLC,1710 nM
same,TGI,EKVX NSCLC,3610 nM
same,GI50,HCC-2998 colon,250 nM
same,TGI,HCC-2998 colon,742 nM
same,GI50,HCT-116 colon,1490 nM
same,TGI,HCT-116 colon,2960 nM
same,GI50,HCT-15 colon,1310 nM
same,TGI,HCT-15 colon,2760 nM
same,GI50,HL-60(TB) leukemia,1840 nM
same,TGI,HL-60(TB) leukemia,3790 nM
same,GI50,HOP-62 NSCLC,1470 nM
same,TGI,HOP-62 NSCLC,2880 nM
same,GI50,HOP-92 NSCLC,1060 nM
same,TGI,HOP-92 NSCLC,2580 nM
same,GI50,HS 578T breast,1430 nM
same,TGI,HS 578T breast,3600 nM
same,GI50,HT29 colon,340 nM
same,TGI,HT29 colon,1190 nM
same,GI50,IGROV1 ovarian,1940 nM
same,TGI,IGROV1 ovarian,4260 nM
same,GI50,K-562 leukemia,328 nM
same,TGI,K-562 leukemia,1180 nM
same,GI50,KM12 colon,1570 nM
same,TGI,KM12 colon,3060 nM
same,GI50,LOX IMVI melanoma,1320 nM
same,TGI,LOX IMVI melanoma,2680 nM
same,GI50,M14 melanoma,1790 nM
same,TGI,M14 melanoma,3390 nM
same,GI50,MALME-3M melanoma,1900 nM
same,TGI,MALME-3M melanoma,3940 nM
same,GI50,MCF7 breast,1190 nM
same,TGI,MCF7 breast,2520 nM
same,GI50,MDA-MB-231 breast,1280 nM
same,TGI,MDA-MB-231 breast,2600 nM
same,GI50,MDA-MB-435,1760 nM
same,TGI,MDA-MB-435,4190 nM
same,GI50,MOLT-4 leukemia,1960 nM
same,TGI,MOLT-4 leukemia,4220 nM
same,GI50,NCI-H226 lung,1530 nM
same,TGI,NCI-H226 lung,3010 nM
same,GI50,NCI-H23 lung,1670 nM
same,TGI,NCI-H23 lung,3200 nM
same,GI50,NCI-H460 lung,1450 nM
same,TGI,NCI-H460 lung,2970 nM
same,GI50,NCI-H522 lung,1700 nM
same,TGI,NCI-H522 lung,3250 nM
same,GI50,NCI/ADR-RES ovarian,1610 nM
same,TGI,NCI/ADR-RES ovarian,3070 nM
same,GI50,OVCAR-3 ovarian,1830 nM
same,TGI,OVCAR-3 ovarian,3270 nM
same,GI50,OVCAR-4 ovarian,1450 nM
same,TGI,OVCAR-4 ovarian,2760 nM
same,GI50,OVCAR-5 ovarian,1820 nM
same,TGI,OVCAR-5 ovarian,3250 nM
same,GI50,OVCAR-8 ovarian,1730 nM
same,TGI,OVCAR-8 ovarian,3290 nM
same,GI50,PC-3 prostate,1770 nM
same,TGI,PC-3 prostate,3510 nM
same,GI50,RPMI-8226 leukemia,1990 nM
same,TGI,RPMI-8226 leukemia,4430 nM
same,GI50,RXF 393 renal,1200 nM
same,TGI,RXF 393 renal,2480 nM
same,GI50,SF-268 CNS,1640 nM
same,TGI,SF-268 CNS,3080 nM
same,GI50,SF-295 CNS,1830 nM
same,TGI,SF-295 CNS,3790 nM
same,GI50,SF-539 CNS,1760 nM
same,TGI,SF-539 CNS,3210 nM
same,GI50,SK-MEL-2 melanoma,2250 nM
same,TGI,SK-MEL-2 melanoma,3880 nM
same,GI50,SK-MEL-28 melanoma,1600 nM
same,TGI,SK-MEL-28 melanoma,2950 nM
same,GI50,SK-MEL-5 melanoma,1520 nM
same,TGI,SK-MEL-5 melanoma,2850 nM
same,GI50,SK-OV-3 ovarian,1570 nM
same,TGI,SK-OV-3 ovarian,2910 nM
same,GI50,SN12C renal,1630 nM
same,TGI,SN12C renal,3040 nM
same,GI50,SNB-19 CNS,1700 nM
same,TGI,SNB-19 CNS,3150 nM
same,GI50,SNB-75 CNS,1280 nM
same,TGI,SNB-75 CNS,2570 nM
same,GI50,SW-620 colon,819 nM
same,TGI,SW-620 colon,2200 nM
same,GI50,T-47D breast,1600 nM
same,TGI,T-47D breast,3110 nM
same,GI50,TK-10 renal,1750 nM
same,TGI,TK-10 renal,3220 nM
same,GI50,U251 CNS,1290 nM
same,TGI,U251 CNS,2630 nM
same,GI50,UACC-257 melanoma,1710 nM
same,TGI,UACC-257 melanoma,3220 nM
same,GI50,UACC-62 melanoma,1670 nM
same,TGI,UACC-62 melanoma,3050 nM
same,GI50,UO-31 renal,1670 nM
same,TGI,UO-31 renal,3730 nM

# From PubChem BioAssay (NCI)
